As a reminder, the IC50 is the concentration needed to halve the response being measured.

Data on 31 compounds can be found in patent US20260308145A1, “CDK2 INHIBITORS AND METHODS OF USING SAME” (Shenzhen lonova Life Science Co., Ltd., priority 2023, published 2026).

Type in all cases: biochemical
The target in one assay is T1, CDK2/cyclinE1 (Homo sapiens, UniProt P24941).
T1 construct: purchased Carna Biosciences 04-165
As to the kind of experiment: Cyclin-dependent kinase activity assay (continuous ATP coupling assay), CDK2/cyclinE1. As to conditions: CDK2/cyclinE1 5 nM, ATP 300 μM, Rb copeptide 100 μM, 15 min preincubation, pH 7.5, 1% DMSO. The method in brief: (§1)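 PK/LDH-coupled continuous assay, ATP at each kinase's Km, Tris pH 7.5 with 1% DMSO final; enzyme preincubated 15 min with compound (10 μM to 0.05 nM, 1:3), NADH fluorescence decrease (ex 340/em 460) gave velocities. IC50 by 4-variable fit; Ki by quadratic/Morrison fit.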

A further assay has as its target T2, CDK1/cyclinB1 (Homo sapiens, UniProt P06493).
T2 construct: purchased Carna Biosciences 04-102
As to the kind of experiment: Cyclin-dependent kinase activity assay (continuous ATP coupling assay), CDK1/cyclinB1. As to conditions: CDK1/cyclinB1 10 nM, ATP 200 μM, Histone1 copeptide 100 μM, 15 min preincubation, pH 7.5, 1% DMSO. The method in brief: as §1

A further assay deals with T3, CDK6/cyclinD3 (Homo sapiens, UniProt Q00534).
T3 construct: purchased Carna Biosciences 04-107
T3 sequence (Q00534 whole entry): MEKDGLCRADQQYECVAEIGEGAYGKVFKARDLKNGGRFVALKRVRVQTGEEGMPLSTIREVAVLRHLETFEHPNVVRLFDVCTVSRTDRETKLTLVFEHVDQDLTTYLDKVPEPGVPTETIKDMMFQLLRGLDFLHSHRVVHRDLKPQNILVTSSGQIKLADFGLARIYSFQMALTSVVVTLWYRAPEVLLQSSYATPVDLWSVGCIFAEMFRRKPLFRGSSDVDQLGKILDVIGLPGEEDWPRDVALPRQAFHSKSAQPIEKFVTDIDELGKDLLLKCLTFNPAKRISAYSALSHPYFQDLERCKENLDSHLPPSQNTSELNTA
T3 sequence (P30281 whole entry partner): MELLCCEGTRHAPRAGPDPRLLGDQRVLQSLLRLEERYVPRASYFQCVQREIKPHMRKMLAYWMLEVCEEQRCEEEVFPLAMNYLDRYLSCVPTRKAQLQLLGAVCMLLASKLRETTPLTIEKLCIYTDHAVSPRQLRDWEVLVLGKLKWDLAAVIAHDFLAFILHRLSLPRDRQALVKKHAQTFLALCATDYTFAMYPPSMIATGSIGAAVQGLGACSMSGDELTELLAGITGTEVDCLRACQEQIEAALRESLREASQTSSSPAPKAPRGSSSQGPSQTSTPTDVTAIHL
As to the kind of experiment: Cyclin-dependent kinase activity assay (continuous ATP coupling assay), CDK6/cyclinD3. As to conditions: CDK6/cyclinD3 25 nM, ATP 500 μM, Rb copeptide 500 μM, 15 min preincubation, pH 7.5, 1% DMSO. The method in brief:
as §1

A further assay concerns the target T4, CDK4/cyclinD3 (Homo sapiens, UniProt P11802).
T4 construct: purchased Carna Biosciences 04-105
Description: Cyclin-dependent kinase activity assay (continuous ATP coupling assay), CDK4/cyclinD3. The conditions noted are these: CDK4/cyclinD3 60 nM, ATP 500 μM, Rb copeptide 500 μM, 15 min preincubation, pH 7.5, 1% DMSO. An outline of the steps: as §1

T4 sequence (P11802 whole entry): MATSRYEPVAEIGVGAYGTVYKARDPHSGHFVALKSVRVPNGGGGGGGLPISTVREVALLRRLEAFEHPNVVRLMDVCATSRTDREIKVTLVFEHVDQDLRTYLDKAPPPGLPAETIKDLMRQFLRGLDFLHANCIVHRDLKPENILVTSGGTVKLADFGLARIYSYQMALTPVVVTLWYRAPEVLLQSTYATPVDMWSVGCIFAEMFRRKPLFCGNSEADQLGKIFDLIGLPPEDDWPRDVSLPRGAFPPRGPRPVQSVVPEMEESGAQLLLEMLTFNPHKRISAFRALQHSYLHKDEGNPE
T4 sequence (P30281 whole entry partner): as the sequence (P30281 whole entry partner) above
T2 sequence (P06493 whole entry): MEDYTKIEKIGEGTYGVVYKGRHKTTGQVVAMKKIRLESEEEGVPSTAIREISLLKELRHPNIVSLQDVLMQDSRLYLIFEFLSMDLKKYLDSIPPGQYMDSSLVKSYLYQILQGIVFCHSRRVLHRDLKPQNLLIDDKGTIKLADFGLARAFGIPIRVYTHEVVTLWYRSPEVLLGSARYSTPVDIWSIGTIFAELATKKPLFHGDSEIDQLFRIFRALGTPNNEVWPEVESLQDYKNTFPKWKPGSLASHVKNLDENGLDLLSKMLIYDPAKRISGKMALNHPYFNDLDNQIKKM
T2 sequence (P14635 whole entry partner): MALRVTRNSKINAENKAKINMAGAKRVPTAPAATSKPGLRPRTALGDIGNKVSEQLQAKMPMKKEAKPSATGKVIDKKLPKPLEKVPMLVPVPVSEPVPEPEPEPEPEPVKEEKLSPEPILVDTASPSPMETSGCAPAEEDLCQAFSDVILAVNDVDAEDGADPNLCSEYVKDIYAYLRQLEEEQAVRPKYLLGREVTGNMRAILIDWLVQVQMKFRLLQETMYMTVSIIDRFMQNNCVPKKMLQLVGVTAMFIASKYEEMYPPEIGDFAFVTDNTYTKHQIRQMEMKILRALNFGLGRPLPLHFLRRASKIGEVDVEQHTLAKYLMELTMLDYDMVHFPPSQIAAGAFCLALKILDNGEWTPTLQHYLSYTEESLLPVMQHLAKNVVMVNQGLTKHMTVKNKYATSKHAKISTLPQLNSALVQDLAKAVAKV

As for `CN(C)CCNS(=O)(=O)c1ccc(Nc2ncc(C(F)(F)F)c(-n3cccn3)n2)cc1` [Example 43], the 50% inhibitory concentration (IC50) against CDK2/cyclinE1 is not above 10 nM; against CDK1/cyclinB1 it was 10 to 100 nM; on CDK6/cyclinD3, 10 to 100 nM; at CDK4/cyclinD3, 10 to 100 nM.
As for `CNS(=O)(=O)c1ccc(Nc2ncc(C(F)(F)F)c(-n3cc(C4=CCCC4)cn3)n2)cc1` [Example 12, 4-((4-(4-(cyclopent-1-en-1-yl)-1H-pyrazol-1-yl)-5-(trifluoromethyl)pyrimidin-2-yl)amino)-N-methylbenzenesulfonamide], the concentration for half-maximal inhibition (IC50) at CDK2/cyclinE1 is 10 to 100 nM; on CDK1/cyclinB1, not below 100 nM; against CDK6/cyclinD3 it was not below 100 nM; at CDK4/cyclinD3 it was 10 to 100 nM.
For the compound `O=S(=O)(NC1CC(F)(F)C1)c1ccc(Nc2ncc(C(F)(F)F)c(-n3cccn3)n2)cc1` [Example 41], the IC50 is 10 to 100 nM on CDK2/cyclinE1, not below 100 nM at CDK1/cyclinB1, not below 100 nM at CDK6/cyclinD3 and not below 100 nM on CDK4/cyclinD3.
As for `O=S(=O)(NCCO)c1ccc(Nc2nccc(-n3cccn3)n2)cc1` [Example 118], the IC50 at CDK2/cyclinE1, against CDK1/cyclinB1, against CDK6/cyclinD3 and at CDK4/cyclinD3 was not below 100 nM throughout.
Consider `CNS(=O)(=O)c1ccc(Nc2ncc(C(F)(F)F)c(-n3cc(CCC(C)(C)O)cn3)n2)cc1` [Example 3], for which the IC50 is 10 to 100 nM at CDK2/cyclinE1, 10 to 100 nM at CDK1/cyclinB1, not below 100 nM on CDK6/cyclinD3 and 10 to 100 nM on CDK4/cyclinD3.
On to `CNS(=O)(=O)c1ccc(Nc2ncc(C(F)(F)F)c(-n3cc(C4COC4)cn3)n2)cc1` [Example 102], for which the IC50 was not above 10 nM against CDK2/cyclinE1, not below 100 nM at CDK1/cyclinB1, 10 to 100 nM on CDK6/cyclinD3 and 10 to 100 nM at CDK4/cyclinD3.
In the case of `CNS(=O)(=O)c1cccc(Nc2ncc(C(F)(F)F)c(-n3cccn3)n2)c1` [Example 122], the IC50 against CDK2/cyclinE1, against CDK1/cyclinB1, against CDK6/cyclinD3 and at CDK4/cyclinD3 was not below 100 nM throughout.
In the case of `CC(C)(O)Cc1cnn(-c2nc(NC3CCN(S(C)(=O)=O)CC3)ncc2C(F)(F)F)c1` [Example 7], the half-maximal inhibitory concentration (IC50) against CDK2/cyclinE1 is not above 10 nM; at CDK1/cyclinB1, 10 to 100 nM; against CDK6/cyclinD3, 10 to 100 nM; at CDK4/cyclinD3 it was 10 to 100 nM.
For the compound `CNS(=O)(=O)c1ccc(Nc2ncc(C(F)(F)F)c(-n3cc([C@@H]4CCNC4)cn3)n2)cc1` [Example 94, (S)—N-methyl-4-((4-(4-(pyrrolidin-3-yl)-1H-pyrazol-1-yl)-5-(trifluoromethyl)pyrimidin-2-yl)amino)benzenesulfonamide], the IC50 on CDK2/cyclinE1 is not above 10 nM; on CDK1/cyclinB1, 10 to 100 nM; against CDK6/cyclinD3 it was not below 100 nM; on CDK4/cyclinD3, 10 to 100 nM.
As for `CC(C)(O)Cc1cnn(-c2nc(N[C@@H]3CCOC[C@H]3O)ncc2C(F)(F)F)c1` (single isomer, unassigned) [Example 8], the IC50 was not below 100 nM against CDK2/cyclinE1, not below 100 nM against CDK1/cyclinB1, 10 to 100 nM on CDK6/cyclinD3 and 10 to 100 nM at CDK4/cyclinD3.
`CNS(=O)(=O)c1ccc(Nc2ncc(C(F)(F)F)c(-n3cc(C(C)(C)C(C)(C)O)cn3)n2)cc1` [Example 60]: the IC50 was 10 to 100 nM on CDK2/cyclinE1, 10 to 100 nM at CDK1/cyclinB1, not below 100 nM on CDK6/cyclinD3 and 10 to 100 nM against CDK4/cyclinD3.
Take `[2H]C([2H])([2H])NS(=O)(=O)c1ccc(Nc2ncc(C(F)(F)F)c(-n3cc(CC(C)(C)O)cn3)n2)cc1` [Example 58]: the IC50 is not above 10 nM against CDK2/cyclinE1, 10 to 100 nM on CDK1/cyclinB1, 10 to 100 nM on CDK6/cyclinD3 and 10 to 100 nM on CDK4/cyclinD3.
For `CNS(=O)(=O)c1ccc(Nc2ncc(C(F)(F)F)c(-n3cc(N4CCCC4)cn3)n2)cc1` [Example 87, N-methyl-4-[[4-(4-pyrrolidin-1-ylpyrazol-1-yl)-5-(trifluoromethyl)pyrimidin-2-yl]amino]benzene sulfonamide], the IC50 is 10 to 100 nM against CDK2/cyclinE1, not below 100 nM on CDK1/cyclinB1, not below 100 nM against CDK6/cyclinD3 and not below 100 nM against CDK4/cyclinD3.
For the compound `CNS(=O)(=O)c1ccc(Nc2ncc(C(F)(F)F)c(-n3cc(C4CC4(F)F)cn3)n2)cc1` (single isomer, unassigned) [Example 52, 4-[[4-[4-(2,2-difluorocyclopropyl)pyrazol-1-yl]-5-(trifluoromethyl)pyrimidin-2-yl]amino]-N-methyl-benzenesulfonamide], the IC50 against CDK2/cyclinE1 is 10 to 100 nM; on CDK1/cyclinB1, not below 100 nM; on CDK6/cyclinD3 it was 10 to 100 nM; at CDK4/cyclinD3 it was not below 100 nM.
Take `N#Cc1cnc(Nc2ccc(S(=O)(=O)NCCO)cc2)nc1-n1cccn1` [Example 119]: the concentration for half-maximal inhibition (IC50) at CDK2/cyclinE1 was 10 to 100 nM; against CDK1/cyclinB1 it was not below 100 nM; against CDK6/cyclinD3 it was 10 to 100 nM; on CDK4/cyclinD3, not below 100 nM.
Take `CNS(=O)(=O)c1ccc(Nc2ncc(C(F)(F)F)c(-n3cc(C)cn3)n2)cc1` [Example 46]: the half-maximal inhibitory concentration (IC50) against CDK2/cyclinE1 was not above 10 nM; on CDK1/cyclinB1 it was not below 100 nM; against CDK6/cyclinD3, not below 100 nM; at CDK4/cyclinD3, 10 to 100 nM.
`CC(CO)NS(=O)(=O)c1ccc(Nc2ncc(C(F)(F)F)c(-n3cccn3)n2)cc1` (stereo not shown) [Example 133]: the half-inhibitory concentration (IC50) on CDK2/cyclinE1 was not above 10 nM; at CDK1/cyclinB1 it was 10 to 100 nM; against CDK6/cyclinD3, not below 100 nM; on CDK4/cyclinD3, not below 100 nM.
As for `CNS(=O)(=O)c1ccc(Nc2ncc(C(F)(F)F)c(-n3cc(C4CCC4)cn3)n2)cc1` [Example 101], the IC50 on CDK2/cyclinE1 was 10 to 100 nM; against CDK1/cyclinB1 it was not below 100 nM; against CDK6/cyclinD3, not below 100 nM; on CDK4/cyclinD3 it was not below 100 nM.
In the case of `CNS(=O)(=O)c1ccc(Nc2ncc(F)c(-n3cc(CC(C)(C)O)cn3)n2)cc1` [Example 62], the IC50 was 10 to 100 nM on CDK2/cyclinE1, not below 100 nM against CDK1/cyclinB1, not below 100 nM against CDK6/cyclinD3 and 10 to 100 nM at CDK4/cyclinD3.
In the case of `CNS(=O)(=O)c1ccc(Nc2ncc(C(F)F)c(-n3cc(CC(C)(C)O)cn3)n2)cc1` [Example 66], the half-maximal inhibitory concentration (IC50) against CDK2/cyclinE1 was 10 to 100 nM; at CDK1/cyclinB1, not below 100 nM; on CDK6/cyclinD3 it was 10 to 100 nM; on CDK4/cyclinD3, 10 to 100 nM.
As to `CC(C)(O)Cc1cnn(-c2nc(N[C@H]3CCOC[C@@H]3O)ncc2C(F)(F)F)c1` (single isomer, unassigned) [Example 9], the IC50 against CDK2/cyclinE1, at CDK1/cyclinB1, against CDK6/cyclinD3 and at CDK4/cyclinD3 was not below 100 nM each time.
Take `CNS(=O)(=O)c1ccc(Nc2nccc(-n3cccn3)n2)cc1` [Example 23]: the half-inhibitory concentration (IC50) against CDK2/cyclinE1, on CDK1/cyclinB1, on CDK6/cyclinD3 and against CDK4/cyclinD3 was not below 100 nM each time.
Turning to `CNS(=O)(=O)c1ccc(Nc2ncc(C(F)(F)F)c(-n3cc(C4CCN(C(C)=O)CC4)cn3)n2)cc1` [Example 14], the half-maximal inhibitory concentration (IC50) at CDK2/cyclinE1 is 10 to 100 nM; on CDK1/cyclinB1, not below 100 nM; against CDK6/cyclinD3, not below 100 nM; against CDK4/cyclinD3, 10 to 100 nM.
For the compound `O=S(=O)(NCCO)c1ccc(Nc2ncc(C(F)(F)F)c(-n3cccn3)n2)cc1F` [Example 123], the half-inhibitory concentration (IC50) against CDK2/cyclinE1 is 10 to 100 nM; on CDK1/cyclinB1, not below 100 nM; at CDK6/cyclinD3, not below 100 nM; at CDK4/cyclinD3 it was not below 100 nM.
`CNS(=O)(=O)c1ccc(Nc2ncc(Cl)c(-n3cccn3)n2)cc1` [Example 24]: the IC50 on CDK2/cyclinE1 is 10 to 100 nM; at CDK1/cyclinB1 it was not below 100 nM; at CDK6/cyclinD3, not below 100 nM; against CDK4/cyclinD3 it was not below 100 nM.
For the compound `O=S(=O)(NCCO)c1ccc(Nc2ncc(C(F)F)c(-n3cccn3)n2)cc1` [Example 116, 4-((5-(difluoromethyl)-4-(1H-pyrazol-1-yl)pyrimidin-2-yl)amino)-N-(2-hydroxyethyl)benzenesulfonamide], the IC50 was 10 to 100 nM on CDK2/cyclinE1, not below 100 nM against CDK1/cyclinB1, not below 100 nM on CDK6/cyclinD3 and not below 100 nM against CDK4/cyclinD3.
Regarding `CNS(=O)(=O)c1ccc(Nc2ncc(C(F)(F)F)c(-n3cccn3)n2)cc1` [Example 16, N-methyl-4-[[4-pyrazol-1-yl-5-(trifluoromethyl)pyrimidin-2-yl]amino]benzene sulfonamide], the IC50 against CDK2/cyclinE1 was not above 10 nM; against CDK1/cyclinB1 it was not below 100 nM; against CDK6/cyclinD3 it was not below 100 nM; at CDK4/cyclinD3, not below 100 nM.
For `CNS(=O)(=O)c1ccc(Nc2ncc(C(F)(F)F)c(-n3cc(C4CN(C)C4)cn3)n2)cc1` [Example 97], the IC50 on CDK2/cyclinE1 was not above 10 nM; at CDK1/cyclinB1, 10 to 100 nM; at CDK6/cyclinD3, not below 100 nM; at CDK4/cyclinD3, 10 to 100 nM.
In the case of `CNS(=O)(=O)c1ccc(Nc2ncc(C(F)(F)F)c(-n3ccc(CC(C)(C)O)n3)n2)cc1` [Example 4], the concentration for half-maximal inhibition (IC50) was 10 to 100 nM on CDK2/cyclinE1, not below 100 nM against CDK1/cyclinB1, not below 100 nM against CDK6/cyclinD3 and not below 100 nM against CDK4/cyclinD3.
As for `CNS(=O)(=O)c1ccc(Nc2ncc(C(F)(F)F)c(-n3cc(N4CCN(C)CC4)cn3)n2)cc1` [Example 83], the IC50 at CDK2/cyclinE1 was not above 10 nM; at CDK1/cyclinB1 it was not below 100 nM; against CDK6/cyclinD3, not below 100 nM; against CDK4/cyclinD3 it was not below 100 nM.
On to `CC(O)Cc1cnn(-c2nc(NC3CCN(S(C)(=O)=O)CC3)ncc2C(F)(F)F)c1` (single isomer, unassigned) [Example 108], for which the IC50 against CDK2/cyclinE1 was 10 to 100 nM; on CDK1/cyclinB1, not below 100 nM; against CDK6/cyclinD3, 10 to 100 nM; against CDK4/cyclinD3, 10 to 100 nM.
